Laboratory results reported in patent US20240139210A1, “TREATMENT OF NF-KB-MEDIATED DISEASE” (ReveraGen BioPharma, Inc., priority 2020, published 2024).

Columns and labels:
Format in all cases: in vivo, human
[1] = tested on: participants with DMD; experiment: CINRG DNHS corticosteroid-treated external comparator; settings: vamorolone versus corticosteroid-treated DNHS, 18 months
Description: The consecutive vamorolone trials (VBP15-002, VBP15-003, VBP15-LTE) were open-label with no placebo comparator. Corticosteroid-naïve and corticosteroid-treated DMD participant comparators were group-matched participants from the CINRG DNHS (NCT00468832). The CINRG DNHS was an observational, prospective case-control study of 551 participants (440 with DMD, 111 healthy peers). For group matching between vamorolone-treated participants and CINRG DNHS participants, prespecified criteria were defined for matching within the interim statistical analysis plan (iSAP). Age-matched CINRG DNHS participants included those continuously corticosteroid-naïve over an 18-month period (n=19) or continuously corticosteroid-treated over an 18-month period (n=68). For the 68 corticosteroid-treated participants, as this was an observational cohort, corticosteroid doses and regimens varied based on clinician discretion. Although all 68 participants were treated for 18 months continuously, the age at initiation of corticosteroids varied. Thus, the total duration of corticosteroid treatment was longer than 18 months for most participants. […]
The incidences of physician-reported AEs typically for corticosteroid treatment were determined for participants that had been treated with vamorolone 6.0 mg/kg/day (for any duration), taken from the March 2019 Data Safety Update Report (DSUR) (pharmacovigilance report). […]

[2] = tested on: participants with DMD; experiment: VBP15-003/VBP15-LTE open-label trials, motor outcomes over 18 months; settings: for TTCLIMB velocity, LS mean difference (SE), ANCOVA / TTSTAND velocity, LS mean difference (SE), ANCOVA / TTRW velocity, LS mean difference (SE), ANCOVA: vamorolone 18 months vs corticosteroid-naïve DNHS
Description: Assessments of efficacy were motor outcomes (primary outcome: time to stand from supine [TTSTAND]; secondary outcomes: time to run/walk 10 meters [TTRW], time to climb four stairs [TTCLIMB], distance covered in 6-minute walk test [6MWT], and the North Star Ambulatory Assessment [NSAA]). 6MWT and NSAA were not assessed in most CINRG DNHS participants and were not compared to vamorolone-treated participants. According to standard operating procedures, clinical evaluators were trained to harmonize the CINRG vamorolone, CINRG DNHS, and CINRG prednisone studies. Reliability of these outcomes (percent coefficient of variation) has been reported for the VBP15-002/VBP15-003 studies. Assessments were done at baseline (VBP15-002 entry), 24 weeks (VBP15-003 last visit), and 18 months (VBP15-LTE midpoint assessment at 12 months).
Only participants completing VBP15-002 and VBP15-003 were eligible to enroll in VBP15-LTE. Participants received vamorolone at 1 of 4 dose levels (0.25, 0.75, 2.0, or 6.0 mg/kg/day) and at the same dose level in both the 4-week VBP15-002 trial and the 24-week VBP15-003 trial. If participants, their families, and their physicians wished to continue vamorolone treatment upon exiting the VBP15-003 trial, they were offered participation in the 24-month long-term extension (VBP15-LTE). The last visit of the VBP15-003 trial was commensurate with the first visit of the VBP15-LTE trial. In all studies, study medication was provided as 4% flavored liquid suspension and was dosed according to body weight and given once daily in the morning with food.
Vamorolone-treated participants were initially enrolled into VBP15-002 and VBP15-003 in 4 dose groups (0.25, 0.75, 2.0, and 6.0 mg/kg/day; groups A-D). Upon entering VBP15-LTE, vamorolone group A participants had 2 or 3 sequential dose escalations and were treated with 2.0 or 6.0 mg/kg/day for the last 3-9 months of the 18 months; group B participants had 1 or 2 dose escalations and were treated with 2.0 or 6.0 mg/kg/day for the last 9-11 months. Groups C and D were treated for 18 months at 2.0 or 6.0 mg/kg/day (S1 Fig).
The current study is the first to evaluate the longer-term tolerability, efficacy, and safety of vamorolone in DMD. […] Given the variable timing of dose escalations, it was prespecified that initial analyses of drug-related efficacy and safety would be limited to those participants who had 18 months of treatment with 2.0 mg/kg/day vamorolone or more (dose group C+dose group D; n=23). Outcomes for these participants were compared to a group-matched cohort from the CINRG DNHS over 18 months (corticosteroid-naïve, n=19; corticosteroid-treated, n=68). Participants were matched for age and treatment period (±1 month), matching criteria were prespecified in the statistical analysis plan. Two independent statisticians carried out the matching.
Statistical analyses were done on paired longitudinal outcome data using an analysis of covariance (ANCOVA) approach with change from baseline (VBP15-002) to month 18 (midpoint of VBP15-LTE). Baseline response and age were included as covariates. For the vamorolone-treated participants, age was calculated as (date of informed consent minus birthdate)/365.25. For the DNHS participants, age was calculated as (date of baseline visit used minus birthdate)/365.25. The baseline visit for a DNHS participant was the first visit. […] Timed function tests were analyzed as velocity scores to limit the impact of participants who could not perform the test (velocity=0). Velocity measures are variance-stabilizing transformations, suppressing extreme raw outliers from raw values in seconds; these help with distributional assumptions of the statistical models/tests used. Raw data (seconds) are also reported. Velocity scores for TTSTAND (event/second), TTRW (meters/second), and TTCLIMB (event/second) were inputted as 0 at the first response missing due to inability to perform the test. All other data were observed values only, without imputation. […]

[3] = tested on: participants with DMD; experiment: VBP15-LTE Month 24 PODCI and skeletal maturation by wrist x-ray; settings: for Bone Age difference to Chronologic Age, mean (SD): LTE Month 24, wrist x-ray
Description: In addition, 39/41 LTE participants had wrist x-ray at Month 24; the mean bone age to chronologic age difference was −1.1 (p<0.001, CI −1.5, −0.7), indicating possible skeletal maturation delay (Table 7).
PODCI is the Pediatrics Outcomes Data Collection Instrument (musculoskeletal disorders). The PODCI is a disease-specific questionnaire developed by the American Academy of Orthopedic Surgeons to measure general health and problems related to bone and muscle conditions in children. A significant increase in mean PODCI upper extremity and physical function standardized score was observed from LTE baseline to Month 24 (7.95±12.54, CI 1.003, 14.897, p=0.0278, n=15) for the combined 2.0 and 6.0 mg/kg/day initial dose group. At the same time, a non-significant decrease in mean PODCI transfer and basic mobility standardized score was observed (−4.38±22.68, CI −16.471, 7.703, p=0.451, n=16) (Table 7).

[4] = vamorolone 18 months vs corticosteroid-naïve participants
[5] = LTE baseline to Month 24, combined 2.0 and 6.0 mg/kg/day initial dose group
[6] = assigned to high dose (2.0 and 6.0 mg/kg/day) at start of the study

C[C@@H]1C[C@H]2[C@@H]3CCC4=CC(=O)C=C[C@]4(C)C3=CC[C@]2(C)[C@@]1(O)C(=O)CO [Vamorolone, 17α,21-dihydroxy-16α-methylpregna-1,4,9(11)-triene-3,20-dione]
Mean height percentile for age, LS mean difference (SE), ANCOVA [1]: 15.86 percentile
TTCLIMB velocity, LS mean difference (SE), ANCOVA [2]: 0.059 (0.026) event/second
TTSTAND velocity, LS mean difference (SE), ANCOVA [2]: 0.042 (0.024) event/second
TTRW velocity, LS mean difference (SE), ANCOVA ([2]; listed as Valmorolone): 0.286 (0.09) meters/second
TTCLIMB velocity, LS mean difference (SE), ANCOVA ([2]; listed as vamorolone): 0.059 event/second
TTRW velocity, LS mean difference (SE), ANCOVA ([2]; listed as vamorolone): 0.286 meters/second
TTSTAND velocity, LS mean difference (SE), ANCOVA ([2]; listed as vamorolone): 0.042 event/second
TTCLIMB, LS mean difference, ANCOVA [2, 4]: -0.34 s
TTRW, LS mean difference, ANCOVA [2, 4]: -0.84 s
TTSTAND, LS mean difference, ANCOVA [2, 4]: -1.15 s
Bone Age difference to Chronologic Age, mean (SD) ([3]; n = 39): −1.1 (1.2), yr
Bone Age difference to Chronologic Age, mean (SD) ([3]; n = 39, listed as vamorolone): −1.1 yr
PODCI transfer and basic mobility, change from baseline (SD) [3, 5]: −4.38±22.68
PODCI upper extremity and physical function, change from baseline (SD) [3, 5]: 7.95±12.54
PODCI transfer and basic mobility, 24 months from LTE baseline, mean (SD) [3, 6]: 81.4 (17.5), n = 18
PODCI transfer and basic mobility, LTE baseline, mean (SD) [3, 6]: 86.5 (9.2), n = 19
PODCI upper extremity and physical function, 24 months from LTE baseline, mean (SD) [3, 6]: 82.3 (10.9), n = 18
PODCI upper extremity and physical function, LTE baseline, mean (SD) [3, 6]: 75.3 (15.1), n = 18
LTE Month 24 Bone Age by wrist x-ray, mean (SD) ([3]; n = 39, chronologic age 8.0 (1.0) yr): 6.8 (1.4), n = 39 yr
